Measured values as given in paper PMC9658052, “Virtual Screening and Biological Activity Evaluation of New Potent Inhibitors Targeting Hexokinase-II” (Molecules, 2022).
Read-outs that look alike come from different tables or passages of the source.

How the values were obtained:
[1] = design: method as in PMID 20215500, PMID 16044218; conditions: mice, dose range from 500 mg/Kg to 2000 mg/Kg; cited from earlier work
HK-II = conditions: cited from earlier work
A549 cells = assay: MTT cytotoxicity assay, A549; format: cell-based; conditions: Homo sapiens, 48 h, read-out: IC50 (toxicity) A549
Description: (§1) Initially, we adopted the MTT assay to screen the cytotoxicity of all compounds toward three different types of cancer cell lines (HeLa, HepG 2 and A549). […] The chemical structures of the selected compounds are depicted in Figure 2.
(§2) HeLa, Hep G2, and A549 cells were purchased from the Shanghai Institute of Biochemistry and Cell Biology, Chinese Academy of Sciences. All cells were cultured in DMEM with 100 units/mL penicillin/streptomycin, 2 mM glutamine, and 10% FBS in a carbon dioxide atmosphere at 37 °C.
(§3) Cytotoxicity was quantified using a standard MTT assay, which is widely used in evaluating cell proliferation and screening for anticancer drugs. Briefly, following 7 × 10^3 cells incubating in 96-well plates for 48 h filled with DMEM medium supplemented with 10% fetal bovine serum (FBS) containing different concentrations of samples, 10 μL/well of MTT (5 mg/mL) was added. After 4 h of incubation at 37 °C, 100 μL of extraction buffer containing 5% iso-butanol, 0.1% HCl, and 10% SDS was added, and then the cells were incubated overnight. As controls, cells were treated with 0.1% (v/v) DMSO alone. The cell viability was calculated by the absorbance (570 nm) of each well obtained using a microplate reader (Thermo Scientific Multiskan GO, Vantaa, Finland).

HepG 2 cells = assay: MTT cytotoxicity assay, HepG 2; format: cell-based; conditions: Homo sapiens, HepG2, 48 h, read-out: IC50 (toxicity) HepG 2
Description: as §1, §2, §3

Hexokinase-II enzyme = molecular target: T1, Hexokinase-II enzyme (Homo sapiens, UniProt P52789); assay: Hexokinase-II inhibitor screening kit (enzyme activity); format: biochemical; conditions: compound 1 to 128 μM
T1 construct: purchased Abcam ab211114
T1 sequence (P52789 1-917): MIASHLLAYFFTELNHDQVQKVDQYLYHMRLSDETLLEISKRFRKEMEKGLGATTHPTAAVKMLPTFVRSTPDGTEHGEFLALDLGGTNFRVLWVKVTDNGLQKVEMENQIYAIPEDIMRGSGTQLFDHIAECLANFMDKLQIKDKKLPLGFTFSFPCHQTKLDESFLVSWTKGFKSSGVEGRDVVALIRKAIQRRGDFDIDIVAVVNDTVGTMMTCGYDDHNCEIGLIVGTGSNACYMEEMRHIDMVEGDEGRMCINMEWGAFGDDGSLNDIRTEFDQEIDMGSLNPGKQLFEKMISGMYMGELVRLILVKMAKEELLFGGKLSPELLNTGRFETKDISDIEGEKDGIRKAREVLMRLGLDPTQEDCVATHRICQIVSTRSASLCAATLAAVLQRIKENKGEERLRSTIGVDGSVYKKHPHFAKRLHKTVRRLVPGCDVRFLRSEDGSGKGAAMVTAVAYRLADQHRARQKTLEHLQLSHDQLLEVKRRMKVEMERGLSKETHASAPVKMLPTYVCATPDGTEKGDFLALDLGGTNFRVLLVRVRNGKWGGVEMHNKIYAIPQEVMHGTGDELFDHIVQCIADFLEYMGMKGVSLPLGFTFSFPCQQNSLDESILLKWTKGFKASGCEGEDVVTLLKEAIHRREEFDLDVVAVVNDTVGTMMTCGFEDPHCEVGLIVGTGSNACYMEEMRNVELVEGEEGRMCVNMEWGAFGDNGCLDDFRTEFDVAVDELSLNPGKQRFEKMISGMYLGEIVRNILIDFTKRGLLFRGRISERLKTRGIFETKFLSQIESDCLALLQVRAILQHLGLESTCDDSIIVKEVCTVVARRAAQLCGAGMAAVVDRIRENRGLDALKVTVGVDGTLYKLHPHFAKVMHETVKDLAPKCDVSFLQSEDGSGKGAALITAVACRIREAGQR
Description: Since nine compounds display the highest cytotoxicity to three different cancer cells, we then verified the effects of the compounds on Hexokinase-II activity.
Figure 3 Inhibition of compounds 4244-3659 and K611-0094 on Hexokinase-II activity. […] All data were expressed as mean ± SE from three independent experiments. ** p < 0.01 vs. the control groups.
The Hexokinase-II activity was tested via a Hexokinase-II inhibitor screening kit (Abcam, Cambridge, UK, ab211114), and all experiments were carried out following the manufacturer’s instructions. […] HK assay buffer was treated as negative control, bromopyruvic acid was used for positive controls, and DMSO was used as a solvent control. The value of OD at 450 nm at 15 min and 25 min was recorded. IC50 values were calculated in GraphPad Prism 5.

HeLa cells = assay: MTT cytotoxicity assay, HeLa; format: cell-based; conditions: Homo sapiens, 48 h, read-out: IC50 (toxicity) Hela
Description: as §1, §2, §3

[2] = 5 min at 25 °C preincubation, read-out: EC50, inhibitory effect on HK-II enzyme activity
[3] = read-out: IC50 on Hexokinase-II enzyme

| IC50 (Hexokinase-II enzyme; [2]) | Compound | IC50 (A549 cells) | IC50 (HepG 2 cells) | IC50 (HeLa cells) | other results |
| --- | --- | --- | --- | --- | --- |
|  | O=CC[C@@H](O)[C@H](O)[C@H](O)CO [2-Deoxyglucose (2-DG), 2-Deoxyglucose] |  |  |  | therapeutic effect of a single agent [1]: no significant therapeutic effect |
|  | O=C(O)C(=O)CBr [3-Bromopyruvate (3-BrPA), 3-Bromopyruvate] |  |  |  | inhibitory action against HK-II (HK-II): moderate inhibitory action |
| 17.5 ± 1.4 µM | CN1C(=O)[C@](O)(CC(=O)c2cc(O)ccc2O)c2ccccc21 [4244-3659] | 54.6 ± 2.6 µM | 62.5 ± 2.1 µM | 62.1 ± 2 µM | IC50 (Hexokinase-II enzyme; [3]): 17.5 ± 1.4 µM |
|  | CCOC(=O)c1c(C)n(C)c2ccc(OC[C@H](O)CN[C@H](CC)CO)cc12 [6913-0012] | 62.6 ± 0.7 µM | 59 ± 0.2 µM | 51.9 ± 1.5 µM |  |
|  | O=C(N/N=C/c1ccc(Cl)c(Cl)c1)c1cc(O)c(O)c(O)c1 [AK-968/41922716] | 31 µM | 40 ± 0.2 µM | 28.5 ± 1.9 µM |  |
| > 128 µM | O[C@H](CNCc1ccccc1)COc1cccc2ccccc12 [AO-423/13128074] | 38.6 ± 0.8 µM | 30 ± 1.4 µM | 27.7 ± 0.6 µM |  |
| 104 ± 1.1 µM | Cc1ccc(C(C)C)c(OC[C@H](O)CNCc2ccccc2)c1 [AP-124/43383769] | 36.5 ± 0.4 µM | 23.3 µM | 25.1 ± 0.9 µM |  |
|  | CC(=O)c1c(C)[nH]c2ccc(OC[C@@H](O)CNCCc3ccccc3)cc12 [D016-0099] | 50.4 ± 0.3 µM | 44.2 ± 0.6 µM | 48.5 ± 1.2 µM |  |
| > 128 µM | O=C(CSc1nc2c(sc3ccccc32)c(=O)n1Cc1cccnc1)Nc1ccc(O)c(O)c1 [K263-0793] | 27.1 ± 1.4 µM | 22.1 ± 0.9 µM | 22.4 ± 1.4 µM |  |
| 45 ± 1.1 µM | Nc1nc(SCC(=O)Nc2cccc([N+](=O)[O-])c2)sc1C(=O)Nc1nccs1 [K611-0094] | 48.8 ± 1.2 µM | 57.9 ± 1.7 µM | 47.8 ± 0.6 µM | IC50 (Hexokinase-II enzyme; [3]): 45 ± 1.1 µM |
|  | CN(C)C(=N)N=C(N)N [metformin] |  |  |  | IC50 (HK-II; weak inhibitory effect, read-out: IC50 against HK-II): > 10000 µM |
|  | €-4-Nitro-N′-(2,3,4-trihydroxybenzylidene) |  |  |  | IC50 (HK-II; read-out: enzyme activity (HK2 inhibitor)): 0.53 ± 0.13 µM |
